The values that follow come from patent publication US7476764B2, “Phenylcarboxyamides as beta-secretase inhibitors” (Bristol-Myers Squibb Company, priority 2005, dated 2009).

Counter-ions that a name gives are not always drawn. Where only a bound is given, the exact number is not on record here.

For the experiment, the target named is T1, BACE1 enzyme (Homo sapiens, UniProt P56817).
T1 construct: The HEK293-9B.A1 cell line, which overexpresses the BACE1 enzyme, was derived from HEK293 cells; endogenous in cells; washed 48,000 x g pellet of the cell homogenate
T1 sequence (P56817 46-501): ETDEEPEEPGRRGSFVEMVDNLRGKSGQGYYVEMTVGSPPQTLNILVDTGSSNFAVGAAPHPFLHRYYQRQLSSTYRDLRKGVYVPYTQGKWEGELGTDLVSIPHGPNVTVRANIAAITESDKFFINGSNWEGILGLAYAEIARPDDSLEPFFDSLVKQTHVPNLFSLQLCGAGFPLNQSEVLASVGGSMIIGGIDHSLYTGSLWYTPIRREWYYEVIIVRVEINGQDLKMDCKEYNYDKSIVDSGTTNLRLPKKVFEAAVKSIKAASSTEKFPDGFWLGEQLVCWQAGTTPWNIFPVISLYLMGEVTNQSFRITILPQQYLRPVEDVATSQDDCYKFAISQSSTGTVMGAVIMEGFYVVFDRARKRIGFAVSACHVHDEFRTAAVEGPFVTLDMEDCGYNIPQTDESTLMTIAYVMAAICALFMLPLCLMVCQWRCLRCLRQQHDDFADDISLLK
Kind of experiment: Radioligand displacement assay with a radiolabeled BACE inhibitor on HEK293-9B.A1 cell homogenate. It counts as binding. As to conditions: displacement of 1 nM tritiated radioligand, HEK293-9B.A1 homogenate, pH 5.0, 1.5 hr at 25° C.; read-out: Activity Rating (activity based on IC50 values). As for the experimental part: Radioligand displacement assays with a radiolabeled BACE inhibitor (WO 2004 013098, compound 3, where the methoxy group is substituted for C(^3H)3) were carried out using standard methods (Keen, M. (1999) in Receptor Binding Techniques (Walker, J. M. ed) p. 106 Humana Press, Totowa, N.J.). The HEK293-9B.A1 cell line, which overexpresses the BACE1 enzyme, was derived from HEK293 cells (Simmons, N. L. (1990) A cultured human renal epitheloid cell line responsive to vasoactive intestinal peptide. Exp. Physiol. 75:309-19.) by RAGE™ (Harrington, J. J. et al. (2001) Creation of genome-wide protein expression libraries using random activation of gene expression. Nat. Biotechnol. 19:440-5; U.S. Pat. Nos. 6,410,266 and 6,361,972). T225 flask cultures of HEK293-9B.A1 were grown to 80% confluency in DMEM supplemented with 2 mM L-glutamine, 10 μg/ml penicillin, 10 μg/ml streptomycin, 3 μg/ml puromycin, 100 nM methotrexate, and 10% fetal bovine serum (Invitrogen, Carlsbad, Calif.), harvested, and resuspended at 2×10^8 cells per 10 ml of lysis buffer consisting of 50 mM HEPES pH 7.0 containing a protease inhibitor cocktail of AEBSF 104 μM, aprotinin 80 nM, leupeptin 2 μM, bestatin 4 μM, pepstatin A 1.5 μM, and E-64 1.4 μM (0.1% of protease inhibitor cocktail P8340, Sigma-Aldrich, St. Louis, Mo.) at 4° C. The resuspended cells were homogenized using a Polytron (Brinkman, Westbury, N.Y.) at setting 6 for 10 sec., then centrifuged at 48,000×g for 10 min. The resulting pellet was washed by repeating the resuspension, homogenization and centrifugation steps. The final pellet was resuspended in buffer at 4° C. to yield a total protein concentration of 5 mg/ml, then aliquots were frozen in liquid nitrogen for further storage at −70° C. Immediately before carrying out a binding assay, an aliquot of cell homogenate was thawed and diluted to a concentration of 100 μg/ml in assay buffer consisting of 50 mM HEPES pH 5.0 and 0.1% CHAPSO. Assays were initiated in polypropylene 96-well plates (Costar, Cambridge, Mass.) by the addition of 200 μl of cell homogenate to 50 μl of assay buffer containing 1 nM radioligand (WO 2004 013098, compound 3, where the methoxy group is substituted for C(^3H)3: 80 Ci/mMol) and various concentrations of unlabelled compounds, and incubated for 1.5 hr. at 25° C. Separation of bound from free radioligand was by filtration on GFF glass fiber filters (Innotech Biosystems International, Lansing, Mich.) using an Innotech cell harvester.
What is called IC50 is the concentration that gives 50% inhibition. As for `CCCO/N=C(\C)c1cc(C(=O)N[C@@H](Cc2cc(F)cc(F)c2)[C@H](O)CNCc2cccc(OC)c2)cc(S(C)(=O)=O)c1` [Example 19, N-((2S,3R)-4-(3-methoxybenzylamino)-1-(3,5-difluorophenyl)-3-hydroxybutan-2-yl)-3-(methylsulfonyl)-5-((E)-1-(propoxyimino)ethyl)benzamide TFA salt], the IC50 was 0.1 to 1 µM.
For `COc1cccc(CNC[C@@H](O)[C@H](Cc2cc(F)cc(F)c2)NC(=O)c2cc(/C(C)=N/OCC(C)C)cc(S(C)(=O)=O)c2)c1` [Example 20, N-((2S,3R)-4-(3-methoxybenzylamino)-1-(3,5-difluorophenyl)-3-hydroxybutan-2-yl)-3-((E)-1-(isobutoxyimino)ethyl)-5-(methylsulfonyl)benzamide TFA salt] the value was > 1 µM; for `C=CCO/N=C(\C)c1cc(C(=O)N[C@@H](Cc2cc(F)cc(F)c2)[C@H](O)CNCc2cccc(OC)c2)cc(S(C)(=O)=O)c1` [Example 21, N-((2S,3R)-4-(3-methoxybenzylamino)-1-(3,5-difluorophenyl)-3-hydroxybutan-2-yl)-3-((E)-1-(allyloxyimino)ethyl)-5-(methylsulfonyl)benzamide TFA salt], 0.1 to 1 µM; for `COc1cccc(CNC[C@@H](O)[C@H](Cc2cc(F)cc(F)c2)NC(=O)c2cc(C(C)=O)cc(N3CCCCS3(=O)=O)c2)c1` [Example 22, N-[(1S,2R)-1-(3,5-difluoro-benzyl)-2-hydroxy-3-(3-methoxy-benzylamino)-propyl]-3-(1,1-dioxo-1λ^6-[1,2]thiazinan-2-yl)-5-acetyl-benzamide TFA salt], < 0.1 µM.
`COc1cccc(CNC[C@@H](O)[C@H](Cc2cc(F)cc(F)c2)NC(=O)c2cc(C(C)O)cc(N3CCCCS3(=O)=O)c2)c1` (stereo partly drawn) [Example 23, N-[(1S,2R)-1-(3,5-difluoro-benzyl)-2-hydroxy-3-(3-methoxy-benzylamino)-propyl]-3-(1,1-dioxo-1λ^6-[1,2]thiazinan-2-yl)-5-(1-hydroxy-ethyl)-benzamide TFA salt]: the IC50 is < 0.1 µM.
Consider `CO/N=C(\C)c1cc(C(=O)N[C@@H](Cc2cc(F)cc(F)c2)[C@H](O)CNCc2cccc(OC)c2)cc(N2CCCCS2(=O)=O)c1` [Example 24, N-[(1S,2R)-1-(3,5-difluoro-benzyl)-2-hydroxy-3-(3-methoxy-benzylamino)-propyl]-3-(1,1-dioxo-1λ^6-[1,2]thiazinan-2-yl)-5-{1-[(E)-methoxyimino]-ethyl}-benzamide TFA salt], for which the IC50 was < 0.1 µM.
For `COc1cccc(CNC[C@@H](O)[C@H](Cc2cc(F)cc(F)c2)NC(=O)c2cc(/C(C)=N/OCc3ccccc3)cc(N3CCCCS3(=O)=O)c2)c1` [Example 25, N-[(1S,2R)-1-(3,5-difluoro-benzyl)-2-hydroxy-3-(3-methoxy-benzylamino)-propyl]-3-(1,1-dioxo-1λ^6-[1,2]thiazinan-2-yl)-5-{1-[(E)-benzyloxyimino]-ethyl}-benzamide TFA salt] the value was < 0.1 µM.
With `CCCO/N=C(\C)c1cc(C(=O)N[C@@H](Cc2cc(F)cc(F)c2)[C@H](O)CNCc2cccc(OC)c2)cc(N2CCCCS2(=O)=O)c1` [Example 26, N-[(1S,2R)-1-(3,5-difluoro-benzyl)-2-hydroxy-3-(3-methoxy-benzylamino)-propyl]-3-(1,1-dioxo-1λ^6-[1,2]thiazinan-2-yl)-5-{1-[(E)-propoxyimino]-ethyl}-benzamide TFA salt], the IC50 is < 0.1 µM.
For `COc1cccc(CNC[C@@H](O)[C@H](Cc2cc(F)cc(F)c2)NC(=O)c2cc(/C(C)=N/OCC(C)C)cc(N3CCCCS3(=O)=O)c2)c1` [Example 27, N-[(1S,2R)-1-(3,5-difluoro-benzyl)-2-hydroxy-3-(3-methoxy-benzylamino)-propyl]-3-(1,1-dioxo-1λ^6-[1,2]thiazinan-2-yl)-5-{1-[(E)-isobutoxyimino]-ethyl}-benzamide TFA salt] the value was 0.1 to 1 µM; for `C=CCO/N=C(\C)c1cc(C(=O)N[C@@H](Cc2cc(F)cc(F)c2)[C@H](O)CNCc2cccc(OC)c2)cc(N2CCCCS2(=O)=O)c1` [Example 28, N-[(1S,2R)-1-(3,5-difluoro-benzyl)-2-hydroxy-3-(3-methoxy-benzylamino)-propyl]-3-(1,1-dioxo-1λ^6-[1,2]thiazinan-2-yl)-5-{1-[(E)-allyloxyimino]-ethyl}-benzamide TFA salt], < 0.1 µM.
For the compound `COc1cccc(CNC[C@@H](O)[C@H](Cc2cc(F)cc(F)c2)NC(=O)c2cc(C(C)=O)cc(N(C)S(C)(=O)=O)c2)c1` [Example 29, N-((2S,3R)-4-(3-methoxybenzylamino)-1-(3,5-difluorophenyl)-3-hydroxybutan-2-yl)-3-acetyl-5-(N-methylmethan-2-ylsulfonamido)benzamide TFA salt], the IC50 was 0.1 to 1 µM.
The result for `CO/N=C(\C)c1cc(C(=O)N[C@@H](Cc2cc(F)cc(F)c2)[C@H](O)CNCc2cccc(OC)c2)cc(N(C)S(C)(=O)=O)c1` [Example 30, N-((2S,3R)-4-(3-methoxybenzylamino)-1-(3,5-difluorophenyl)-3-hydroxybutan-2-yl)-3-((E)-1-(methoxyimino)ethyl)-5-(N-methylmethan-2-ylsulfonamido)benzamide TFA salt] reads < 0.1 µM; that for `COc1cccc(CNC[C@@H](O)[C@H](Cc2cc(F)cc(F)c2)NC(=O)c2cc(/C(C)=N/OCc3ccccc3)cc(N(C)S(C)(=O)=O)c2)c1` [Example 31, N-((2S,3R)-4-(3-methoxybenzylamino)-1-(3,5-difluorophenyl)-3-hydroxybutan-2-yl)-3-((E)-1-(benzyloxyimino)ethyl)-5-(N-methylmethan-2-ylsulfonamido)benzamide TFA salt], < 0.1 µM; that for `CCCO/N=C(\C)c1cc(C(=O)N[C@@H](Cc2cc(F)cc(F)c2)[C@H](O)CNCc2cccc(OC)c2)cc(N(C)S(C)(=O)=O)c1` [Example 32, N-((2S,3R)-4-(3-methoxybenzylamino)-1-(3,5-difluorophenyl)-3-hydroxybutan-2-yl)-3-((E)-1-(propoxyimino)ethyl)-5-(N-methylmethan-2-ylsulfonamido)benzamide TFA salt], 0.1 to 1 µM.
For `COc1cccc(CNC[C@@H](O)[C@H](Cc2cc(F)cc(F)c2)NC(=O)c2cc(/C(C)=N/OCC(C)C)cc(N(C)S(C)(=O)=O)c2)c1` [Example 33, N-((2S,3R)-4-(3-methoxybenzylamino)-1-(3,5-difluorophenyl)-3-hydroxybutan-2-yl)-3-((E)-1-(isobutoxyimino)ethyl)-5-(N-methylmethan-2-ylsulfonamido)benzamide TFA salt] the value was 0.1 to 1 µM.
The result for `C=CCO/N=C(\C)c1cc(C(=O)N[C@@H](Cc2cc(F)cc(F)c2)[C@H](O)CNCc2cccc(OC)c2)cc(N(C)S(C)(=O)=O)c1` [Example 34, N-((2S,3R)-4-(3-methoxybenzylamino)-1-(3,5-difluorophenyl)-3-hydroxybutan-2-yl)-3-((E)-1-(allyloxyimino)ethyl)-5-(N-methylmethan-2-ylsulfonamido)benzamide TFA salt] reads < 0.1 µM; that for `COc1cccc(CNC[C@@H](O)[C@H](Cc2cc(F)cc(F)c2)NC(=O)c2cc(C(C)O)cc(N(C)S(C)(=O)=O)c2)c1` (stereo partly drawn) [Example 35, N-((2S,3R)-4-(3-methoxybenzylamino)-1-(3,5-difluorophenyl)-3-hydroxybutan-2-yl)-3-(1-hydroxyethyl)-5-(N-methylmethan-2-ylsulfonamido)benzamide TFA salt], < 0.1 µM.
As to `COc1cccc(CNC[C@@H](O)[C@H](Cc2cc(F)cc(F)c2)NC(=O)c2cc(C(C)=O)cc(N(c3ccccc3)S(C)(=O)=O)c2)c1` [Example 36, N-((2S,3R)-4-(3-methoxybenzylamino)-1-(3,5-difluorophenyl)-3-hydroxybutan-2-yl)-3-acetyl-5-(N-phenylmethan-10-ylsulfonamido)benzamide TFA salt], the IC50 is < 0.1 µM.
The result for `COc1cccc(CNC[C@@H](O)[C@H](Cc2cc(F)cc(F)c2)NC(=O)c2cc(/C(C)=N/O)cc(N(c3ccccc3)S(C)(=O)=O)c2)c1` [Example 37, N-((2S,3R)-4-(3-methoxybenzylamino)-1-(3,5-difluorophenyl)-3-hydroxybutan-2-yl)-3-((E)-1-(hydroxyimino)ethyl)-5-(N-phenylmethan-10-ylsulfonamido)benzamide] reads < 0.1 µM.
